For 14 molecules, TGI and GI50 results are on record in PubChem BioAssay (NCI).

Test systems include ACHN renal; BT-549 breast; CAKI-1 renal; DU-145 prostate; HS 578T breast; IGROV1 ovarian; KM12 colon; NCI-H226 lung; PC-3 prostate; SW-620 colon; RXF 393 renal.
Experiment in all cases: inhibition of tumour cell growth, NCI panel, 48 h

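Following 48 hours of exposure in 96-well plates, responses at five concentrations were used to interpolate endpoints linearly. At the GI50, growth is halved. TGI is the concentration that stops growth completely.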

For the molecule `CCOC(=O)c1cnc(-n2[nH]c3c(c2=O)CCCC3)[nH]c1=O`, the TGI with ACHN renal, in the assay with BT-549 breast, in the assay with CAKI-1 renal, in the assay with DU-145 prostate, in the assay with HS 578T breast and in the assay with IGROV1 ovarian was over 100 µM throughout. The TGI with KM12 colon, with NCI-H226 lung, in the assay with PC-3 prostate and with SW-620 colon was over 100 µM throughout.
As for `O=C=NCCCCCCN1C(=O)N2C(c3ccccc3)N(CCCCCCN=C=O)C(=O)N2C1c1ccccc1` (centres undefined), the TGI in the assay on ACHN renal, in the assay with BT-549 breast, with CAKI-1 renal, in the assay with DU-145 prostate, with IGROV1 ovarian and in the assay with KM12 colon was over 100 µM throughout. Further, the TGI with NCI-H226 lung, in the assay on PC-3 prostate, in the assay with RXF 393 renal and in the assay with SW-620 colon was over 100 µM in each case.
For `C=CCNC1=C2C[C@@H](C)C[C@@H](OC)[C@H](OC(=O)CN)[C@H](C)/C=C(\C)[C@@H](OC(N)=O)[C@H](OC)/C=C\C=C(/C)C(=O)NC(=CC1=O)C2=O`, the TGI is 19.6 µM with ACHN renal; 28.3 µM in the assay with BT-549 breast; 18.1 µM with CAKI-1 renal; over 40.9 µM in the assay on DU-145 prostate; 80.1 µM in the assay on HS 578T breast; 15.5 µM with IGROV1 ovarian. The TGI was 9.87 µM in the assay with KM12 colon, 11.9 µM in the assay on PC-3 prostate, 17 µM in the assay with RXF 393 renal and over 100 µM in the assay with SW-620 colon.
With `COc1ccc2c(c1)CCC1=CC3(CCC12C)SCCS3` (centres undefined), the TGI in the assay on ACHN renal, in the assay with BT-549 breast, with CAKI-1 renal, in the assay with DU-145 prostate, in the assay with IGROV1 ovarian and in the assay with KM12 colon was over 10 µM each time. The TGI with PC-3 prostate and with SW-620 colon was over 10 µM throughout.
On to `Cc1ccc(/C=C/C(=N/NC(=O)N/N=C(/C=C/c2ccc(C)cc2)C(C)(C)CN2CCCCC2)C(C)(C)CN2CCCCC2)cc1`, for which the TGI with ACHN renal was determined as 4.23 µM; in the assay on BT-549 breast it was 4.21 µM; with CAKI-1 renal, 5.56 µM; with HS 578T breast it was 3.29 µM; with IGROV1 ovarian, 3.71 µM; in the assay on KM12 colon it was 3.01 µM. The TGI turned out to be 4.51 µM in the assay with NCI-H226 lung, 3.52 µM in the assay with PC-3 prostate, 2.68 µM in the assay with RXF 393 renal and 3.35 µM with SW-620 colon.
Take `Cn1c2c(c3ccccc31)CC(=S)N1CCCC(CC2O)C1` (centres undefined): the TGI in the assay on ACHN renal, in the assay on BT-549 breast, in the assay with CAKI-1 renal, in the assay on DU-145 prostate, in the assay with HS 578T breast and in the assay with KM12 colon was over 100 µM each time. Besides, the TGI in the assay on NCI-H226 lung, in the assay on PC-3 prostate and in the assay with SW-620 colon was over 100 µM each time.
Consider `O=C(O)CCCOc1cc(-c2ccccc2F)nc2cc3c(cc12)OCO3`, for which the TGI in the assay with BT-549 breast was over 100 µM; with CAKI-1 renal, over 100 µM; in the assay on DU-145 prostate, over 100 µM; in the assay on IGROV1 ovarian, 15.8 µM; in the assay on KM12 colon it was over 100 µM; in the assay on NCI-H226 lung, over 100 µM. Further, the TGI in the assay on PC-3 prostate, in the assay on RXF 393 renal and with SW-620 colon was over 100 µM throughout. Further, the GI50 in the assay on NCI-H226 lung was 8.51 µM; in the assay with RXF 393 renal it was 7.68 µM.
With `O=C1/C(=C/c2ccc(Cl)cc2)N=C(c2ccccc2)N1c1ccc(S(=O)(=O)Nc2nccs2)cc1`, the TGI with ACHN renal, in the assay on CAKI-1 renal, with DU-145 prostate, in the assay on HS 578T breast, with KM12 colon and with NCI-H226 lung was over 100 µM in each case. In addition, the TGI with PC-3 prostate, in the assay on RXF 393 renal and in the assay with SW-620 colon was over 100 µM throughout.
In the case of `O=C(Nc1ccccc1F)c1cc2ccc(O)cc2oc1=Nc1cccc(C(F)(F)F)c1`, the TGI was 19.4 µM in the assay on ACHN renal; 8.42 µM in the assay with BT-549 breast; 19.7 µM in the assay with CAKI-1 renal; over 100 µM in the assay on DU-145 prostate; 7.75 µM with HS 578T breast; 5.54 µM in the assay with IGROV1 ovarian. Further, the values for the TGI in the assay on KM12 colon, in the assay with PC-3 prostate and in the assay on SW-620 colon were 26.8 µM, over 100 µM and over 100 µM, respectively.
For the molecule `CN(C)C(=O)Oc1ccc(-c2cn3cc(NC(=O)c4ccccc4)ccc3n2)cc1`, the TGI in the assay with ACHN renal, in the assay on BT-549 breast, in the assay on CAKI-1 renal, in the assay with DU-145 prostate, with IGROV1 ovarian and in the assay with KM12 colon was over 100 µM throughout. For the same molecule, the TGI with NCI-H226 lung, with PC-3 prostate, with RXF 393 renal and in the assay with SW-620 colon was over 100 µM throughout.
Consider `C=CC(C)CCC(C/C=C(\C)CCC=C(C)C)C(=C)CCCC(C)C` (centres undefined), for which the TGI in the assay on ACHN renal, in the assay with BT-549 breast, with CAKI-1 renal, in the assay with DU-145 prostate, in the assay with HS 578T breast and in the assay on IGROV1 ovarian was over 100 µM throughout. Also, the TGI in the assay on KM12 colon, in the assay on PC-3 prostate, in the assay on RXF 393 renal and in the assay with SW-620 colon was over 100 µM in each case.
On to `CCCCCCCN1C(=O)C(O)(c2ccc(C3(O)C(=O)N(CCCCCCC)c4ccccc43)s2)c2ccccc21` (centres undefined), for which the TGI in the assay with ACHN renal is 4.92 µM; with BT-549 breast it was 4.12 µM; in the assay with DU-145 prostate, 3.29 µM; in the assay on HS 578T breast, 5.31 µM; in the assay with IGROV1 ovarian it was 4.28 µM; in the assay with KM12 colon, 3.36 µM. Also, the TGI in the assay on PC-3 prostate was determined as 3.8 µM; in the assay on SW-620 colon, 4.55 µM.
Take `Cc1cn(C2CC(N)C(C(=O)O)O2)c(=O)[nH]c1=O` (centres undefined): the TGI in the assay on ACHN renal, with BT-549 breast, with CAKI-1 renal, in the assay with DU-145 prostate, in the assay on HS 578T breast and in the assay with IGROV1 ovarian was over 100 µM each time. In addition, the TGI in the assay with KM12 colon, with NCI-H226 lung, with PC-3 prostate and in the assay with SW-620 colon was over 100 µM in each case.
Regarding `C/C=C/C(=O)N1C(=O)OC[C@@H]1c1ccccc1`, the TGI in the assay with ACHN renal is 33.5 µM; in the assay with CAKI-1 renal it was 32.6 µM; in the assay with DU-145 prostate it was 37.4 µM; in the assay on HS 578T breast it was 76.2 µM; with IGROV1 ovarian it was 37.1 µM; with KM12 colon it was 29.3 µM. The TGI in the assay with NCI-H226 lung worked out at 39.6 µM; with PC-3 prostate, 37.5 µM; in the assay on RXF 393 renal, 37.2 µM; in the assay with SW-620 colon it was 54.6 µM.
